The record followed here is patent US9744222B2, “Peptide for vaccine” (Circassia Limited, priority 2007, dated 2017).

Where a SMILES comes first, the peptide text is derived from it.

System in one series: not listed separately
Description: Precipitation in aqueous solution of the binding assay. The format is physicochemical. To be noted: lowest concentration at which an insoluble white precipitate is seen in the aqueous solution of the binding assay. From the text:
This is a characteristic of promiscuous HLA-DRB1* binders.
The compound HDDVVSMEYDLAYKL [HDM39A] returned a Precipitation in assay of 10000 µM.
VSMEYDLAYKLGDLH [HDM40A] came in with a Precipitation in assay of 10000 µM.

The series is the same for the next values; noted with them: lowest concentration at which an insoluble white precipitate is seen, value in brackets.
In the case of HDDVVSMEYDLAYKL [HDM39A], the Precipitation in assay entry is “(1.8 mg/ml)”.
Turning to VSMEYDLAYKLGDLH [HDM40A], the Precipitation in assay result was “(1.8 mg/ml)”.

In the next series the test system is PBMC's. Description: Cytokine release assay (IL-13, IFN-gamma). The format is cell-based, human. To be noted: IL-13 or IFN-gamma response greater than 100 pg/ml. The method, then:
Cytokine secretion profiles from PBMC's are analysed in response to the peptide stimulation using the peptides from Example 3.
Thus, an individual was considered to have responded to a peptide if cells from that individual yielded a response greater than 100 pg/ml for either […] or IFN-gamma.
With SYYRYVAREQS [HDM205], the “Ranking of peptides by percentage of responders (in words)” value was “top five peptides”.

System in the next series: not listed separately
Kind of series: Solubility pre-screen of peptides. The settings on record: pre-screened for solubility in an aqueous, acidic milieu; YES/NO.
Description: Methods The assay employed is a competitive MHC class II binding assay, wherein each peptide is analysed for its ability to displace a known control binder from each of the human MHC class II allotypes investigated.
Also shown is the solubility status of the peptide at the highest concentrations in the aqueous solution of the binding assay. The value illustrates the lowest concentration at which an insoluble white precipitate is seen.
As for `CC[C@H](C)[C@H](NC(=O)[C@H](C)NC(=O)[C@H](C)NC(=O)[C@@H](NC(=O)[C@H](C)NC(=O)[C@H](CCC(=O)O)NC(=O)[C@H](CC(=O)O)NC(=O)[C@@H](NC(=O)[C@H](C)NC(=O)[C@@H](N)CCCCN)C(C)C)C(C)C)C(=O)N[C@@H](CCC(=O)O)C(=O)N[C@@H](CCCCN)C(=O)N[C@@H](CO)C(=O)O` [HDM28] (H-KAVDEAVAAIEKS-OH; N-terminus and C-terminus assumed), the Solubility test result is reported as “YES”.
For `CSCC[C@H](NC(=O)[C@@H]1CCCN1C(=O)[C@H](CC(=O)O)NC(=O)[C@H](Cc1ccccc1)NC(=O)[C@@H](NC(=O)[C@@H](N)CCC(=O)O)[C@@H](C)O)C(=O)N[C@@H](CCCCN)C(=O)N[C@H](C(=O)N1CCC[C@H]1C(=O)N[C@@H](CC(=O)O)C(=O)N[C@@H](Cc1c[nH]cn1)C(=O)N[C@@H](CO)C(=O)N[C@@H](CC(=O)O)C(=O)N[C@@H](CCCCN)C(=O)O)C(C)C` [HDM29A] (H-ETFDPMKVPDHSDK-OH; N-terminus and C-terminus assumed), the Solubility test entry was “YES”.
`CSCC[C@H](NC(=O)[C@@H]1CCCN1C(=O)[C@H](CC(=O)O)NC(=O)[C@H](Cc1ccccc1)NC(=O)[C@@H](NC(=O)[C@H](CCC(=O)O)NC(=O)[C@H](CO)NC(=O)[C@@H](N)CCCCN)[C@@H](C)O)C(=O)N[C@@H](CCCCN)C(=O)N[C@H](C(=O)N1CCC[C@H]1C(=O)N[C@@H](CC(=O)O)C(=O)N[C@@H](Cc1c[nH]cn1)C(=O)N[C@@H](CO)C(=O)N[C@@H](CC(=O)O)C(=O)O)C(C)C` [HDM29B] (H-KSETFDPMKVPDHSD-OH; N-terminus and C-terminus assumed): the Solubility test result is recorded as “YES”.
For the compound `CSCC[C@H](NC(=O)[C@@H]1CCCN1C(=O)[C@H](CC(=O)O)NC(=O)[C@H](Cc1ccccc1)NC(=O)[C@@H](NC(=O)[C@@H](N)CCC(=O)O)[C@@H](C)O)C(=O)N[C@@H](CCCCN)C(=O)N[C@H](C(=O)N1CCC[C@H]1C(=O)N[C@@H](CC(=O)O)C(=O)N[C@@H](Cc1c[nH]cn1)C(=O)N[C@@H](CO)C(=O)N[C@@H](CC(=O)O)C(=O)O)C(C)C` [HDM29] (H-ETFDPMKVPDHSD-OH; N-terminus and C-terminus assumed), the Solubility test entry is listed as “YES”.
Regarding `CC[C@H](C)[C@H](NC(=O)CNC(=O)[C@@H](NC(=O)[C@H](Cc1c[nH]cn1)NC(=O)[C@H](CCCNC(=N)N)NC(=O)[C@H](CCC(=O)O)NC(=O)[C@H](Cc1ccccc1)NC(=O)[C@H](CCCCN)NC(=O)[C@@H](N)CC(=O)O)[C@@H](C)CC)C(=O)N[C@H](C(=O)N[C@@H](CC(=O)O)C(=O)N[C@@H](CC(C)C)C(=O)N[C@@H](CCCCN)C(=O)O)[C@@H](C)CC` [HDM30] (H-DKFERHIGIIDLK-OH; N-terminus and C-terminus assumed), the Solubility test entry was “YES”.
Same read-out and setting: to `CC[C@H](C)[C@H](NC(=O)CNC(=O)[C@@H](NC(=O)[C@@H](N)Cc1c[nH]cn1)[C@@H](C)CC)C(=O)N[C@H](C(=O)N[C@@H](CC(=O)O)C(=O)N[C@@H](CC(C)C)C(=O)N[C@@H](CCCCN)C(=O)NCC(=O)N[C@@H](CCC(=O)O)C(=O)N[C@@H](CC(C)C)C(=O)N[C@@H](CC(=O)O)C(=O)N[C@@H](CCSC)C(=O)N[C@@H](CCCNC(=N)N)C(=O)N[C@@H](CC(N)=O)C(=O)O)[C@@H](C)CC` [HDM31A] (H-HIGIIDLKGELDMRN-OH; N-terminus and C-terminus assumed) belongs “YES”; to `CC[C@H](C)[C@H](N)C(=O)N[C@@H](CC(=O)O)C(=O)N[C@@H](CC(C)C)C(=O)N[C@@H](CCCCN)C(=O)NCC(=O)N[C@@H](CCC(=O)O)C(=O)N[C@@H](CC(C)C)C(=O)N[C@@H](CC(=O)O)C(=O)N[C@@H](CCSC)C(=O)N[C@@H](CCCNC(=N)N)C(=O)N[C@@H](CC(N)=O)C(=O)N[C@H](C(=O)N[C@@H](CCC(N)=O)C(=O)N[C@H](C(=O)N[C@@H](CCCNC(=N)N)C(=O)O)C(C)C)[C@@H](C)CC` [HDM32A] (H-IDLKGELDMRNIQVR-OH; N-terminus and C-terminus assumed), “YES”.
Regarding `CC[C@H](C)[C@H](N)C(=O)N[C@@H](CC(=O)O)C(=O)N[C@@H](CC(C)C)C(=O)N[C@@H](CCCCN)C(=O)NCC(=O)N[C@@H](CCC(=O)O)C(=O)N[C@@H](CC(C)C)C(=O)N[C@@H](CC(=O)O)C(=O)N[C@@H](CCSC)C(=O)N[C@@H](CCCNC(=N)N)C(=O)N[C@@H](CC(N)=O)C(=O)N[C@H](C(=O)N[C@@H](CCC(N)=O)C(=O)O)[C@@H](C)CC` [HDM32] (H-IDLKGELDMRNIQ-OH; N-terminus and C-terminus assumed), the Solubility test entry is “YES”.
Turning to `CC[C@H](C)[C@H](NC(=O)[C@H](CC(N)=O)NC(=O)[C@H](CCCNC(=N)N)NC(=O)[C@H](CCSC)NC(=O)[C@H](CC(=O)O)NC(=O)[C@@H](N)CC(C)C)C(=O)N[C@@H](CCC(N)=O)C(=O)N[C@H](C(=O)N[C@@H](CCCNC(=N)N)C(=O)NCC(=O)N[C@@H](CC(C)C)C(=O)N[C@@H](CCCCN)C(=O)N[C@@H](CCC(N)=O)C(=O)O)C(C)C` [HDM33] (H-LDMRNIQVRGLKQ-OH; N-terminus and C-terminus assumed), the Solubility test entry is “YES”.
As for `CC[C@H](C)[C@H](NC(=O)[C@H](CC(N)=O)NC(=O)[C@@H](N)CCCNC(=N)N)C(=O)N[C@@H](CCC(N)=O)C(=O)N[C@H](C(=O)N[C@@H](CCCNC(=N)N)C(=O)NCC(=O)N[C@@H](CC(C)C)C(=O)N[C@@H](CCCCN)C(=O)N[C@@H](CCC(N)=O)C(=O)N[C@@H](CCSC)C(=O)N[C@@H](CCCCN)C(=O)N[C@@H](CCCNC(=N)N)C(=O)N[C@H](C(=O)NCC(=O)O)C(C)C)C(C)C` [HDM34] (H-RNIQVRGLKQMKRVG-OH; N-terminus and C-terminus assumed), the Solubility test entry is given as “YES”.
As for `CSCC[C@H](NC(=O)[C@H](CCC(N)=O)NC(=O)[C@H](CCCCN)NC(=O)[C@H](CC(C)C)NC(=O)CNC(=O)[C@@H](N)CCCNC(=N)N)C(=O)N[C@@H](CCCCN)C(=O)N[C@@H](CCCNC(=N)N)C(=O)N[C@H](C(=O)NCC(=O)N[C@@H](CC(=O)O)C(=O)N[C@@H](C)C(=O)N[C@@H](CC(N)=O)C(=O)O)C(C)C` [HDM35] (H-RGLKQMKRVGDAN-OH; N-terminus and C-terminus assumed), the Solubility test result was “YES”.
On to `CC(C)[C@H](NC(=O)[C@H](CCCNC(=N)N)NC(=O)[C@@H](N)CCCCN)C(=O)NCC(=O)N[C@@H](CC(=O)O)C(=O)N[C@@H](C)C(=O)N[C@@H](CC(N)=O)C(=O)N[C@H](C(=O)N[C@@H](CCCCN)C(=O)N[C@@H](CO)C(=O)N[C@@H](CCC(=O)O)C(=O)N[C@@H](CC(=O)O)C(=O)NCC(=O)O)C(C)C` [HDM36] (H-KRVGDANVKSEDG-OH; N-terminus and C-terminus assumed), for which the Solubility test entry is “YES”.
With `CC(C)[C@H](NC(=O)CNC(=O)[C@H](CC(=O)O)NC(=O)[C@H](CCC(=O)O)NC(=O)[C@H](CO)NC(=O)[C@H](CCCCN)NC(=O)[C@@H](NC(=O)[C@H](CC(N)=O)NC(=O)[C@H](C)N)C(C)C)C(=O)N[C@H](C(=O)N[C@@H](CCCCN)C(=O)N[C@@H](C)C(=O)N[C@@H](Cc1c[nH]cn1)C(=O)O)C(C)C` [HDM37] (H-ANVKSEDGVVKAH-OH; N-terminus and C-terminus assumed), the Solubility test entry is listed as “YES”.
Regarding `CC[C@H](C)[C@H](NC(=O)[C@H](C)NC(=O)[C@@H](N)[C@@H](C)O)C(=O)N[C@@H](Cc1ccccc1)C(=O)N[C@@H](CCC(N)=O)C(=O)N[C@@H](CC(=O)O)C(=O)N[C@H](C(=O)N[C@H](C(=O)N[C@@H](CCCNC(=N)N)C(=O)N[C@@H](C)C(=O)N[C@@H](CCC(=O)O)C(=O)N[C@@H](CCSC)C(=O)N[C@H](C(=O)N[C@@H](CCCCN)C(=O)O)[C@@H](C)O)C(C)C)[C@@H](C)O` [HDM48] (H-TAIFQDTVRAEMTK-OH; N-terminus and C-terminus assumed), the Solubility test entry is given as “YES”.
For `CSCC[C@H](NC(=O)[C@H](CCC(=O)O)NC(=O)[C@H](C)NC(=O)[C@H](CCCNC(=N)N)NC(=O)[C@@H](NC(=O)[C@@H](NC(=O)[C@@H](N)CC(=O)O)[C@@H](C)O)C(C)C)C(=O)N[C@H](C(=O)N[C@@H](CCCCN)C(=O)N[C@H](C(=O)N[C@@H](CC(C)C)C(=O)N[C@@H](C)C(=O)N1CCC[C@H]1C(=O)O)C(C)C)[C@@H](C)O` [HDM49] (H-DTVRAEMTKVLAP-OH; N-terminus and C-terminus assumed), the Solubility test entry is given as “YES”.
Take `CC(C)C[C@H](NC(=O)[C@H](CCC(=O)O)NC(=O)[C@H](CCCCN)NC(=O)[C@H](CCCCN)NC(=O)[C@H](Cc1ccccc1)NC(=O)[C@H](C)NC(=O)[C@@H]1CCCN1C(=O)[C@H](C)NC(=O)[C@H](CC(C)C)NC(=O)[C@@H](NC(=O)[C@@H](N)CCCCN)C(C)C)C(=O)N[C@@H](CCC(=O)O)C(=O)N[C@@H](CCCNC(=N)N)C(=O)O` [HDM50] (H-KVLAPAFKKELER-OH; N-terminus and C-terminus assumed): the Solubility test result is on record as “YES”.
